According to ChEMBL document CHEMBL4330071 (Eur J Med Chem, 2019):

How the values were obtained:
[1] = biological target: T1, Receptor-type tyrosine-protein kinase FLT3 (Homo sapiens, UniProt P36888); test: Inhibition of human FLT3 using EAIYAAPFAKKK as substrate preincubated for 20 mins followed by [gamma-33P]-ATP addition and measured after 120 mins by Hotspot assay
T1 sequence (P36888 whole entry): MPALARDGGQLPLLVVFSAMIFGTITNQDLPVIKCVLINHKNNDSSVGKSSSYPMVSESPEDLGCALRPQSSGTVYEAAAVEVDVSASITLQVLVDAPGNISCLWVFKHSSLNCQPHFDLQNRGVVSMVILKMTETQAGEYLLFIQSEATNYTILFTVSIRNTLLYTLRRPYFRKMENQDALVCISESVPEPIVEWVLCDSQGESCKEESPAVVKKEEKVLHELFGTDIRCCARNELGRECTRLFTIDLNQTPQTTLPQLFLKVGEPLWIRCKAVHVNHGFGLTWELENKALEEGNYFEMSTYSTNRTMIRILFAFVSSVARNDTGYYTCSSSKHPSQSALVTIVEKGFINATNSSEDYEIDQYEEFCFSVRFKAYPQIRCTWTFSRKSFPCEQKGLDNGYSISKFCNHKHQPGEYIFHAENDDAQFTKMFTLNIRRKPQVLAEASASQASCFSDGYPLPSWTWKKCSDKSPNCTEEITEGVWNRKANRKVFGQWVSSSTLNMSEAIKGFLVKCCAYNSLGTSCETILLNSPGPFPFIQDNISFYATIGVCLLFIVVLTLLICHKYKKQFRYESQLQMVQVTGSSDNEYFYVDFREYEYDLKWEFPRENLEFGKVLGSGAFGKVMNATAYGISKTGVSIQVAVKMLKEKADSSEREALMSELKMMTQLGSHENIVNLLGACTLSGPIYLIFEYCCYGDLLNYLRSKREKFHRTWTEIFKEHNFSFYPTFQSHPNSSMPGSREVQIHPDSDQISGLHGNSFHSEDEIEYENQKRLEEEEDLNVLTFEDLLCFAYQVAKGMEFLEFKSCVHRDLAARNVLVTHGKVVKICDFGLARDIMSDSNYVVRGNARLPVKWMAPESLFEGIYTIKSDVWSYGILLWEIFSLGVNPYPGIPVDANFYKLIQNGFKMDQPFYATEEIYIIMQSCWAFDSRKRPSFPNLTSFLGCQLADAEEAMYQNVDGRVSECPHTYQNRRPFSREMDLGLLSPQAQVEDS

[2] = Half life in rat liver microsomes at 1 uM after 5 to 60 mins in presence of NADPH by LC-MS/MS analysis; assay type: ADME, Microsome
[3] = Intrinsic clearance in rat liver microsomes assessed per mg protein at 1 uM after 5 to 60 mins in presence of NADPH by LC-MS/MS analysis; assay type: ADME, Microsome; conditions: read-out: CLH
[4] = Half life in human liver microsomes at 1 uM after 5 to 60 mins in presence of NADPH by LC-MS/MS analysis; assay type: ADME, Microsome
[5] = Intrinsic clearance in human liver microsomes assessed per mg protein at 1 uM after 5 to 60 mins in presence of NADPH by LC-MS/MS analysis; assay type: ADME, Microsome; conditions: read-out: CLH
[6] = tested on: MV4-11; test: Induction of apoptosis in human MV4-11 cells assessed as early apoptotic cells at 1 uM after 24 hrs by Annexin V-FITC/propidium iodide staining based flow cytometric analysis (reference value: 3.39%); assay type: functional
[7] = tested on: MV4-11; test: Induction of apoptosis in human MV4-11 cells assessed as viable cells at 1 uM after 24 hrs by Annexin V-FITC/propidium iodide staining based flow cytometric analysis (reference value: 95.19%); assay type: functional; conditions: MV4-11, 24 h, read-out: Activity
[8] = tested on: MV4-11; test: Cytotoxicity against human MV4-11 cells at 1 uM after 72 hrs by MTT assay; assay type: cell-based; conditions: mv4-11, 72 h
[9] = tested on: MV4-11; test: Induction of apoptosis in human MV4-11 cells assessed as late apoptotic cells at 1 uM after 24 hrs by Annexin V-FITC/propidium iodide staining based flow cytometric analysis (reference value: 1.42%); assay type: functional
[10] = tested on: MV4-11; test: Induction of apoptosis in human MV4-11 cells assessed as necrotic cells at 1 uM after 24 hrs by Annexin V-FITC/propidium iodide staining based flow cytometric analysis (reference value: 0%); assay type: functional

Work on `CN1CCC(Nc2ccc(C(=O)Nc3n[nH]c4cc(Oc5ccccc5)ccc34)cc2)CC1` yielded an IC50 [1] of 136 nM.
`CN1CCN(c2ccc(Nc3[nH]nc4c3-c3ccccc3CC4)cc2)CC1` showed an IC50 [1] of 610 nM.
Molecule `Cc1ncc2n1-c1ccc(Cl)cc1C(c1ccccc1F)=NC2` [MIDAZOLAM] has a half-life at 1 µM [2] of 11.2 min, a microsomal CLint at 1 µM [3] of 124 µL/min/mg and a half-life at 1 µM [4] of 2.2 min. For the same molecule, the microsomal CLint at 1 µM [5] was 625 µL/min/mg.
Work on `COc1ccc(Oc2ccc3c(NC(=O)c4ccc(NC5CCN(C)CC5)cc4)n[nH]c3c2)cc1` yielded an IC50 [1] of 222 nM.
With `CN1CCN(c2ccc(Nc3[nH]nc4c3-c3ccccc3CO4)cc2)CC1` the IC50 [1] was 842 nM.
For `CNC(=O)c1cc(Oc2ccc(NC(=O)Nc3ccc(Cl)c(C(F)(F)F)c3)cc2)ccn1` [SORAFENIB], the Activity [6] was 32.25%, the viability at 1 µM [7] was 36% and the Activity [8] was “Non-Toxic”. For the same molecule, the Activity [9] was 27.58% and the Activity [10] was 4.2%.
